From US20240262793A1, “QUINAZOLINE COMPOUND, AND PREPARATION METHOD THEREFOR AND APPLICATION THEREOF” (SHANGHAI PHARMACEUTICALS HOLDING CO., LTD., priority 2021, published 2024)

Assays:
Format in all cases: cell-based
Conditions in all cases: Homo sapiens, LPS 100 ng/mL
TNF-α = test: Inhibition of TNF-α in PMA-differentiated, LPS-stimulated THP-1 cells (ELISA of cell supernatant)
Procedure: (§1) (1) Cell culture and inoculation: A stock solution of PMA at 1 mg/mL was diluted with serum-free RP1640 medium to prepare a 100 ng/mL PMA solution. Normal cultured THP-1 cells were centrifuged, resuspended in a complete medium (RP1640 medium containing 10% FBS), and counted. The cell density was adjusted to 2×10^6 cells/mL. An equal volume of 100 ng/mL PMA solution was then added, resulting in a cell density of 1×10^6 cells/mL and a final PMA concentration of 50 ng/mL. 100 μL of the cell suspension was seeded into each well of a 96-well cell culture plate with 1×10^5 cells per well. The 96-well cell culture plate was then incubated at 37° C. in a 5% CO2 atmosphere for 24 hours.
(§2) (2) Drug treatment of cells: On the second day, LPS was added to the complete medium to adjust the final concentration to 100 ng/mL, and the compound was prepared using this LPS-containing medium. The compound was added to the appropriate cell wells according to the prepared concentration gradient. The positive control group (LPS+) was a culture medium solution containing a final concentration of 100 ng/mL LPS and 0.1% DMSO without drugs, while the negative control group (LPS-) was a culture medium solution containing 0.1% DMSO without LPS. The volume in each well was 100 μL.
(§3) (3) Test sample collection: The mixture was centrifuged at 1000 rpm for 5 minutes and the cell supernatant and cell precipitate were collected separately. The cell supernatant was used to detect TNF-α and IL-6, and the cell precipitate was collected for IL-1β detection. After collecting the cell supernatant, the remaining liquid in the wells was discarded and 100 μL of cell lysis solution (20 mM Tris 8.0; 2 mM EDTA; 0.5% Triton X-100) was added to each well for complete lysis.
(§4) (4) Sample detection: The enzyme-linked immunosorbent assay (ELISA) was used to detect the content of each cytokine. The specific steps were performed according to the instructions provided in the corresponding kit manuals. The catalog numbers of kits are as follows: • Human TNF-alpha Quantikine ELISA Kit, Catalog # STA00D • Human IL-1 beta/IL-1F2 Quantikine ELISA Kit, Catalog # SLB50 • Human IL-6 Quantikine ELISA Kit, Catalog # S6050.
(§5) (5) Data analysis: The in vitro inhibitory activity of the compounds was calculated using the following formula: […]

IL-1β = test: Inhibition of IL-1β in PMA-differentiated, LPS-stimulated THP-1 cells (ELISA of cell lysate)
Procedure: as §1, §2, §3, §4, §5

IL-6 = test: Inhibition of IL-6 in PMA-differentiated, LPS-stimulated THP-1 cells (ELISA of cell supernatant)
Procedure: as §1, §2, §3, §4, §5

| IC50 (TNF-α; THP-1, Table 8, PMA 50 ng/mL) [µM] | IC50 (IL-1β; THP-1, Table 8, PMA 50 ng/mL) [µM] | IC50 (IL-6; THP-1, Table 8, PMA 50 ng/mL) [µM] | IC50 (TNF-α; THP-1, Table 7, PMA 50 ng/mL) [µM] | IC50 (IL-1β; THP-1, Table 7, PMA 50 ng/mL) [µM] | IC50 (IL-6; THP-1, Table 7, PMA 50 ng/mL) [µM] | Structure (SMILES) |
| --- | --- | --- | --- | --- | --- | --- |
| 79.4 | 23.1 | 14.4 | – | – | – | O=C1CNC(=O)N1CCCCNc1ncnc2cc(Cl)ccc12 [Example 63, 3-(4-((7-Chloroquinazolin-4-yl)amino)butyl)imidazoline-2,4-dione] |
| 34.9 | 63.8 | 0.34 | – | – | – | O=C1NC2(CCC2)C(=O)N1CCCCNc1ncnc2cc(Cl)ccc12 [Example 64, 7-(4-((7-Chloroquinazolin-4-yl)amino)butyl)-5,7-diazaspiro[3.4]octane-6,8-dione] |
| 3.41 | 37.4 | 0.3 | – | – | – | O=C1NC2(CCCC2)C(=O)N1CCCCCNc1ncnc2cc(Cl)ccc12 [Example 66, 3-(5-((7-Chloroquinazolin-4-yl)amino)pentyl)-1,3-diazaspiro[4.4]nonane-2,4-dione] |
| 65.2 | 105 | 4.6 | – | – | – | O=C1CNC(=O)N1CCCCCNc1ncnc2cc(Cl)ccc12 [Example 67, 3-(5-((7-Chloroquinazolin-4-yl)amino)pentyl)imidazoline-2,4-dione] |
| 11.7 | 13.7 | 0.58 | – | – | – | CC1(C)NC(=O)N(CCCCCNc2ncnc3cc(Cl)ccc23)C1=O [Example 69, 3-(5-((7-Chloroquinazolin-4-yl)amino)pentyl)-5,5-dimethylimidazoline-2,4-dione] |
| 12.7 | 16.1 | 0.64 | – | – | – | CC(CCCN1C(=O)NC2(CCC2)C1=O)Nc1ncnc2cc(Cl)ccc12 (stereo not drawn) [Example 71, 7-(4-((7-Chloroquinazolin-4-yl)amino)pentyl)-5,7-diazaspiro[3.4]octane-6,8-dione] |
| 7.5 | 12.8 | 0.23 | – | – | – | CC(CCCN1C(=O)NC2(CCCC2)C1=O)Nc1ncnc2cc(Cl)ccc12 (stereo not drawn) [Example 72, 3-(4-((7-Chloroquinazolin-4-yl)amino)pentyl)-1,3-diazaspiro[4.4]nonane-2,4-dione] |
| 33.5 | 38.1 | 1.5 | – | – | – | CC(CCCN1C(=O)NC2(CC2)C1=O)Nc1ncnc2cc(Cl)ccc12 (stereo not drawn) [Example 73, 6-(4-((7-Chloroquinazolin-4-yl)amino)pentyl)-4,6-diazaspiro[2.4]heptane-5,7-dione] |
| 45.6 | 53.8 | 4.28 | – | – | – | C[C@@H](CCCN1C(=O)CNC1=O)Nc1ncnc2cc(Cl)ccc12 [Example 75, (S)-3-(4-((7-Chloroquinazolin-4-yl)amino)pentyl)imidazolidine-2,4-dione] |
| 96.1 | 110 | 19.9 | – | – | – | C[C@H](CCCN1C(=O)NC2(CC2)C1=O)Nc1ncnc2cc(Cl)ccc12 [Example 76, (R)-6-(4-((7-Chloroquinazolin-4-yl)amino)pentyl)-4,6-diazaspiro[2.4]heptane-5,7-dione] |
| 22.7 | 26.6 | 1.37 | – | – | – | C[C@@H](CCCN1C(=O)NC2(CC2)C1=O)Nc1ncnc2cc(Cl)ccc12 [Example 77, (S)-6-(4-((7-Chloroquinazolin-4-yl)amino)pentyl)-4,6-diazaspiro[2.4]heptane-5,7-dione] |
| 90.5 | 164 | 123 | 69.3 | 62.2 | 32 | CCN(CCO)CCCC(C)Nc1ccnc2cc(Cl)ccc12 (stereo not drawn) [HCQ, Hydroxychloroquine, reference compound] |
